Source: patent publication US10676462B2, “Quinoline derivative” (ONO PHARMACEUTICAL CO., LTD., priority 2013, dated 2020)

What was measured:
Ba/F3 Axl = molecular target: T1, Ba/F3 Axl (Homo sapiens, UniProt P30530); assay: Proliferation suppression rate using mouse pro-B cell line (Ba/F3 Axl) stably expressing Axl; assay type: cell-based; details: Ba/F3 Axl cells, 48 hours, CellTiter-Glo; read-out: IC50 value, proliferation suppression of Ba/F3 Axl
T1 sequence (P30530 1-894): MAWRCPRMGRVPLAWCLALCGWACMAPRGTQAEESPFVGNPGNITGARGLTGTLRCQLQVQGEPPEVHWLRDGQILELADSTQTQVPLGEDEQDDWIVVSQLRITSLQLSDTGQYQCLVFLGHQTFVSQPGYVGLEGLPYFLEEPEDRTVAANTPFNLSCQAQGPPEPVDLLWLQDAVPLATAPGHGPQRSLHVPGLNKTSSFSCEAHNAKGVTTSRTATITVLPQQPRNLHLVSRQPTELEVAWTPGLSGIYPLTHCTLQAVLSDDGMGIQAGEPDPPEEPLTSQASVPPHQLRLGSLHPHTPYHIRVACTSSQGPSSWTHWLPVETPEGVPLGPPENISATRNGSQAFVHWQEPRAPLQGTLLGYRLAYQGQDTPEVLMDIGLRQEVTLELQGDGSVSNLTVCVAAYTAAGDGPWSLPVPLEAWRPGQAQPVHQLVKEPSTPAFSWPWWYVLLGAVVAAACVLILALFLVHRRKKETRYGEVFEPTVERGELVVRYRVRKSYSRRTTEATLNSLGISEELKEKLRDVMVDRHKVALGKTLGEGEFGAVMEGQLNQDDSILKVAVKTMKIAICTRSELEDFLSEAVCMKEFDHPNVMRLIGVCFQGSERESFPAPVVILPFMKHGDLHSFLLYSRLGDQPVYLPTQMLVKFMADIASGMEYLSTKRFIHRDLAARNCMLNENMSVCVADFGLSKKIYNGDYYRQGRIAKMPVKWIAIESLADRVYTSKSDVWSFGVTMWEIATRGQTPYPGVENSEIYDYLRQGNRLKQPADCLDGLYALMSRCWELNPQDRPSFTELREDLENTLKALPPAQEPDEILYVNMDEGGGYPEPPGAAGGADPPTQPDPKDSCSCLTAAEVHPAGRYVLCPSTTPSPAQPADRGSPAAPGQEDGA
Experimental: Biological Example 2: Measurement of Proliferation Suppression Rate by Using Mouse Pro-B Cell Line (Ba/F3 Axl) Stably Expressing Axl
A 0.1 mmol/L DMSO solution of the test compound was dispensed into a 96-well plate, and a 3-fold dilution series was prepared using DMSO. DMSO solutions of test compounds, having various concentrations, were further 500-fold diluted with a RPMI1640 medium (containing 10% HI-FBS, 1% penicillin) and a diluted solution of the test compound having […] with respect to the final concentration was prepared. In each well of the 96-well plate (BD Biosciences) for measurement, 50 μL of a RPMI medium was added to the Blank group, 50 μL of a RPMI medium containing 0.2% DMSO was added to the medium group, and 50 μL of the diluted solution of the test compound was added to the test compound group, respectively. Ba/F3 Axl was diluted with a medium to have a density of 2×10^5 cells/mL to prepare a cell suspension. In each well of the 96-well plate for measurement, 50 μL each of the RPMI medium was added to the Blank group, and 50 μL each of the cell suspension to the medium group and the test compound group, respectively, and the groups were stood still at 37° C. at 5% CO2 for 48 hours. After standing still, Relative Light Unit (RLU) was measured by using CELLTITER-GLO (registered trademark) LUMINESCENT CELL VIABILITY ASSAY (Promega). The measurement was carried out according to the attached instruction. To each well, 100 μL each of light-emitting solution was added. The plate was stirred at room temperature for 3 min and then stool still at room temperature with light shielded for 10 min, and RLU was measured by using Microplate Reader (SpectraMax M5e, Molecular Devices). The average values of RLU of the Blank group and the medium group were respectively calculated, and the proliferation suppression rate of the test compound group was calculated. Proliferation suppression rate (%)={1−(RLU of test compound group−A)/(B−A)}×100 [Math. 2] A: average value of RLU of Blank group B: average value of RLU of medium group
A value of 50% inhibition rate (IC50 value) of the test compound was calculated from the inhibition curve based on the inhibition rate in each concentration of the test compound.

KDR = KDR (Homo sapiens, UniProt P35968); assay: Evaluation of kinase selectivity (in vitro test), KDR; assay type: biochemical; details: Axl selective inhibitory activity with respect to KDR, ratio of IC50 values
Chain of KDR (P35968 20-1356): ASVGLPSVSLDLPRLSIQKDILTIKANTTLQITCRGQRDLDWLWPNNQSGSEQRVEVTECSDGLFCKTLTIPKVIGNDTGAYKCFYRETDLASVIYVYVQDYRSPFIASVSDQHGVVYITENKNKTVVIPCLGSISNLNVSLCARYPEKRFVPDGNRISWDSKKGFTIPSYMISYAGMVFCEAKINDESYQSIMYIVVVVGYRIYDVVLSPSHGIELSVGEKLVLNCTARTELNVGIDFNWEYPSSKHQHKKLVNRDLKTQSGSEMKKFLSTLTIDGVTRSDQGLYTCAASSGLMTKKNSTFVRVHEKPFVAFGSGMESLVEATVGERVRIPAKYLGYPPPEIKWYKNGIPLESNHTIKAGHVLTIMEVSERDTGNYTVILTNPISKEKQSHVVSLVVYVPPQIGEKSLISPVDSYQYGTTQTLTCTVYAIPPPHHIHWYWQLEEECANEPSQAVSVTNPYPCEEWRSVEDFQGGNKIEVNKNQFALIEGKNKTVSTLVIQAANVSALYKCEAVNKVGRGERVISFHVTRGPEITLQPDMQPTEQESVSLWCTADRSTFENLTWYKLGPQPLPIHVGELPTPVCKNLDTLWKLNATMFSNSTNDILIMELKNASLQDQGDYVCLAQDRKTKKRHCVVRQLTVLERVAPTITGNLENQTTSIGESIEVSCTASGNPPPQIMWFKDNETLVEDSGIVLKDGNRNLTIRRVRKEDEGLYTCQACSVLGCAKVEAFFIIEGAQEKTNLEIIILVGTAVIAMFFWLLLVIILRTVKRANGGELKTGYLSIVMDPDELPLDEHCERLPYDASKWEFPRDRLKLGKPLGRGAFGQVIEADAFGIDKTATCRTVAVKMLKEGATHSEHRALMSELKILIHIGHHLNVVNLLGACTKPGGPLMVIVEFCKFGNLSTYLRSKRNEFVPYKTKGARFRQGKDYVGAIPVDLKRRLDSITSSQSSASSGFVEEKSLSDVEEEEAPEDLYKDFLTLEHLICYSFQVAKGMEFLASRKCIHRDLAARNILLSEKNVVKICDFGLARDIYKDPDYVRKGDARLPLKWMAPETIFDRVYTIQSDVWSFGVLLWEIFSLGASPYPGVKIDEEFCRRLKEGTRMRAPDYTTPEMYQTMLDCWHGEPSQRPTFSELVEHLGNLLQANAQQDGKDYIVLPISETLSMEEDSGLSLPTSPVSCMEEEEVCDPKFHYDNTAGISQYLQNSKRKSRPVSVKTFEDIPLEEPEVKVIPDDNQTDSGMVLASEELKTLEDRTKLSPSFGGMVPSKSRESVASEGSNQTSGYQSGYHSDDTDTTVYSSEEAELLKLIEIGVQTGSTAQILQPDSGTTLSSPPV
Experimental: Biological Example 3: Evaluation of Kinase Selectivity (In Vitro Test)
Similar to Biological Example 1, values of 50% inhibition rate (IC50 value) with respect to various kinases (KDR, DDR1, FLT4, and ROS) of the test compound were measured. The Axl selective inhibitory activity of the test compound with respect to kinases, for example, KDR, was calculated based on the above-mentioned ratio of the IC50 values. As the test compound, for the compound of the present invention, the compounds of Examples 5, 5(1), 17(2), and 23(2) were used, and for the comparative compounds, the compound of Example 5 (Comparative compound C) and the compound of Example 92 (Comparative compound D) described in Patent Literature 5, having the following structure, were used.

SMILES | GI50 (Ba/F3 Axl) | KDR [IC50]/Axl [IC50] (KDR)
COc1cc2nccc(Oc3ccc(NC(=O)c4cc5c(n(-c6ccccc6)c4=O)CC(C)(C)CC5=O)nc3)c2cc1OC [Example 5(1), N-{5-[(6,7-dimethoxy-4-quinolinyl)oxy]-2-pyridinyl}-7,7-dimethyl-2,5-dioxo-1-phenyl-1,2,5,6,7,8-hexahydro-3-quinolinecarboxamide] | 0.8 nM | about 1800 times
COc1cc2nccc(Oc3ccc(NC(=O)c4cc5c(n(-c6ccccc6)c4=O)CCCC5=O)nc3)c2cc1OC [Example 5, N-{5-[(6,7-dimethoxy-4-quinolinyl)oxy]-2-pyridinyl}-2,5-dioxo-1-phenyl-1,2,5,6,7,8-hexahydro-3-quinolinecarboxamide] | 0.7 nM | about 900 times
O=C1CCCc2c1cc(C(=O)Nc1ccc(Oc3ccnc4cc(OCCCN5CCOCC5)ccc34)cn1)c(=O)n2-c1ccccc1 [Example 17(2), N-[5-({7-[3-(4-morpholinyl)propoxy]-4-quinolinyl}oxy)-2-pyridinyl]2,5-dioxo-1-phenyl-1,2,5,6,7,8-hexahydro-3-quinolinecarboxamide] | 1.2 nM | about 650 times
COc1cc2nccc(Oc3ccc(NC(=O)c4cc5c(n(-c6ccccc6)c4=O)CCCC5=O)c(C)c3)c2cc1OC [Example 23(2), N-{4-[(6,7-dimethoxy-4-quinolinyl)oxy]-2-methylphenyl}-2,5-dioxo-1-phenyl-1,2,5,6,7,8-hexahydro-3-quinolinecarboxamide] | 1.2 nM | about 520 times
